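All cell lines were grown in 96-well plates and treated with compound for 48 hours. Here, GI50 denotes the concentration required for 50% inhibition of growth.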 Calls of active or inactive are those of the source. Cut-off read from the data, not from the text of the source: active = GI50 up to about 1.1 µM and inactive = higher.
How the values were obtained:
Assay in all cases: NCI anticancer screen, dose series, 48 h
OVCAR-4 = tested on: OVCAR-4
HOP-62 = tested on: HOP-62
HCT-15 = tested on: HCT-15
RPMI-8226 = tested on: RPMI-8226
HT-29 = tested on: HT-29
SF-539 = tested on: SF-539
SF-295 = tested on: SF-295
T47D = tested on: T47D
MCF7 = tested on: MCF7
NCI-H522 = tested on: NCI-H522
RXF 393 = tested on: RXF 393
SW-620 = tested on: SW-620
UACC-257 = tested on: UACC-257
Malme-3M = tested on: Malme-3M
SNB-19 = tested on: SNB-19
CCRF-CEM = tested on: CCRF-CEM
786-0 = tested on: 786-0
SR = tested on: SR
NCI/ADR-RES = tested on: NCI/ADR-RES
BT-549 = tested on: BT-549

| Compound | GI50 (OVCAR-4) | GI50 (HOP-62) | GI50 (HCT-15) [µM] | GI50 (RPMI-8226) | GI50 (HT-29) | GI50 (SF-539) | GI50 (SF-295) | GI50 (T47D) | GI50 (MCF7) | GI50 (NCI-H522) | GI50 (RXF 393) | GI50 (SW-620) | GI50 (UACC-257) | GI50 (Malme-3M) | GI50 (SNB-19) | GI50 (CCRF-CEM) | GI50 (786-0) | GI50 (SR) | GI50 (NCI/ADR-RES) | GI50 (BT-549) |
| --- | --- | --- | --- | --- | --- | --- | --- | --- | --- | --- | --- | --- | --- | --- | --- | --- | --- | --- | --- | --- |
| Cc1cc(S(=O)(=O)Nc2nc(N)nc(N(C)C)n2)c(SC(C(=O)O)c2ccccc2)cc1Cl (configuration not stated) | > 10 µM (inactive) | > 10 µM (inactive) | > 10 | > 10 µM (inactive) | > 10 µM (inactive) | > 10 µM (inactive) | > 10 µM (inactive) | > 10 µM (inactive) | > 10 µM (inactive) | > 10 µM (inactive) | > 10 µM (inactive) | > 10 µM (inactive) | > 10 µM (inactive) | > 10 µM (inactive) | > 10 µM (inactive) | > 10 µM (inactive) | > 10 µM (inactive) | > 10 µM (inactive) | > 10 µM (inactive) | > 10 µM (inactive) |
| Cc1c(C2=C(Br)C(=O)N(C)C2=O)c(=O)n(C)c(=O)n1C | 37.7 µM (inactive) | > 100 µM (inactive) | 19.4 | 15.1 µM (inactive) | 20.3 µM (inactive) | 14.9 µM (inactive) | > 100 µM (inactive) | 19.8 µM (inactive) | 20.2 µM (inactive) | 13.6 µM (inactive) | 14.3 µM (inactive) | 31.4 µM (inactive) | 17.4 µM (inactive) | – | > 100 µM (inactive) | 12.2 µM (inactive) | 17.5 µM (inactive) | 23.1 µM (inactive) | 27.8 µM (inactive) | 24.3 µM (inactive) |
| COc1cc2ncnc(Nc3cccc(Br)c3)c2cc1OC | 4.07 µM (inactive) | 10.4 µM (inactive) | 6.56 | 34.1 µM (inactive) | 3.83 µM (inactive) | 4.07 µM (inactive) | 3.17 µM (inactive) | 6.81 µM (inactive) | 23.1 µM (inactive) | 0.338 µM (active) | 11.5 µM (inactive) | 13.2 µM (inactive) | 7.5 µM (inactive) | 7.36 µM (inactive) | 15.2 µM (inactive) | 30.2 µM (inactive) | 2.11 µM (inactive) | 20.3 µM (inactive) | 2.46 µM (inactive) | 12.8 µM (inactive) |
| CC(=N\N)/C(C)=N/N=C(C)/C(C)=N/N=C(C)/C(C)=N/N=C(C)/C(C)=N/N | > 100 µM (inactive) | > 100 µM (inactive) | > 100 | > 100 µM (inactive) | > 100 µM (inactive) | > 100 µM (inactive) | > 100 µM (inactive) | > 100 µM (inactive) | > 100 µM (inactive) | > 100 µM (inactive) | > 100 µM (inactive) | > 100 µM (inactive) | > 100 µM (inactive) | > 100 µM (inactive) | > 100 µM (inactive) | > 100 µM (inactive) | > 100 µM (inactive) | 0.248 µM (active) | > 100 µM (inactive) | 97.1 µM (inactive) |
| O=c1onc2n1-c1cc(Cl)ccc1C(=S)N1CSCC21 (configuration not stated) | > 100 µM (inactive) | > 100 µM (inactive) | > 100 | > 100 µM (inactive) | > 100 µM (inactive) | – | > 100 µM (inactive) | > 100 µM (inactive) | > 100 µM (inactive) | > 100 µM (inactive) | > 100 µM (inactive) | > 100 µM (inactive) | > 100 µM (inactive) | > 100 µM (inactive) | > 100 µM (inactive) | 55.8 µM (inactive) | > 100 µM (inactive) | 34.6 µM (inactive) | > 100 µM (inactive) | > 100 µM (inactive) |
| Cc1cc(-c2cc(C(C)(C)C)c(O)c(C(C)(C)C)c2)c(C)cc1-c1cc(C(C)(C)C)c(O)c(C(C)(C)C)c1 | > 100 µM (inactive) | > 100 µM (inactive) | > 100 | > 100 µM (inactive) | > 100 µM (inactive) | > 100 µM (inactive) | > 100 µM (inactive) | > 100 µM (inactive) | > 100 µM (inactive) | > 100 µM (inactive) | – | > 100 µM (inactive) | > 100 µM (inactive) | > 100 µM (inactive) | > 100 µM (inactive) | > 100 µM (inactive) | > 100 µM (inactive) | 41.2 µM (inactive) | > 100 µM (inactive) | > 100 µM (inactive) |
| CC#CC(O)(C(=O)OC1CC2CCC(C1)N2C)C1CCCC1 (configuration not stated) | > 100 µM (inactive) | > 100 µM (inactive) | > 100 | > 100 µM (inactive) | > 100 µM (inactive) | > 100 µM (inactive) | > 100 µM (inactive) | > 100 µM (inactive) | > 100 µM (inactive) | – | > 100 µM (inactive) | > 100 µM (inactive) | > 100 µM (inactive) | – | > 100 µM (inactive) | > 100 µM (inactive) | > 100 µM (inactive) | > 100 µM (inactive) | > 100 µM (inactive) | > 100 µM (inactive) |
| CO[C@H]1O[C@@H]2CO[C@@H](c3ccccc3)O[C@H]2C[C@]12CCC/C=C\CO2 | 21.9 µM (inactive) | 16.9 µM (inactive) | 13 | – | 17.7 µM (inactive) | 14.6 µM (inactive) | 25.8 µM (inactive) | 18 µM (inactive) | 15.2 µM (inactive) | 11.5 µM (inactive) | 13.9 µM (inactive) | 20.6 µM (inactive) | 22.2 µM (inactive) | 14.1 µM (inactive) | 22.8 µM (inactive) | 10.4 µM (inactive) | 14.2 µM (inactive) | 13.7 µM (inactive) | 21 µM (inactive) | 12.6 µM (inactive) |
| COc1c2c(cc3occ(-c4ccc(CC=C(C)C)cc4)c(=O)c13)OC(C)(C)C=C2 | > 10 µM (inactive) | > 100 µM (inactive) | 45.9 | 6.97 µM (inactive) | 26.9 µM (inactive) | – | 35.4 µM (inactive) | 16.5 µM (inactive) | 31 µM (inactive) | 13.9 µM (inactive) | 43.4 µM (inactive) | 45.6 µM (inactive) | 39.4 µM (inactive) | 60.5 µM (inactive) | 61.1 µM (inactive) | 12.8 µM (inactive) | 84.1 µM (inactive) | 8.55 µM (inactive) | 18.2 µM (inactive) | 76.2 µM (inactive) |
| N#Cc1c(-c2ccccc2)c(C#N)c(=S)n(C2OC(CO)C(O)C(O)C2O)c1O (configuration not stated) | – | > 100 µM (inactive) | > 100 | > 100 µM (inactive) | > 100 µM (inactive) | > 100 µM (inactive) | > 100 µM (inactive) | > 100 µM (inactive) | > 100 µM (inactive) | > 100 µM (inactive) | > 100 µM (inactive) | > 100 µM (inactive) | > 100 µM (inactive) | > 100 µM (inactive) | > 100 µM (inactive) | > 100 µM (inactive) | > 100 µM (inactive) | > 100 µM (inactive) | > 100 µM (inactive) | > 100 µM (inactive) |
| O=c1[nH]nc(Cc2ccc(Cl)cc2)n1/N=C\CC/C=N\n1c(Cc2ccc(Cl)cc2)n[nH]c1=O | > 81.3 µM (inactive) | 8.83 µM (inactive) | 35.2 | > 33.3 µM (inactive) | > 26.2 µM (inactive) | 8.49 µM (inactive) | 24.4 µM (inactive) | 20 µM (inactive) | 21.6 µM (inactive) | 25.1 µM (inactive) | 15.1 µM (inactive) | > 62.2 µM (inactive) | 50.9 µM (inactive) | 24.3 µM (inactive) | 32.9 µM (inactive) | – | 18.5 µM (inactive) | 3.1 µM (inactive) | 22.2 µM (inactive) | 12.2 µM (inactive) |
| Cc1ccc(C(=O)N(Cc2ccccc2)Cc2ccccc2)cc1/N=N/N(C)C | 11.2 µM (inactive) | 23.1 µM (inactive) | 17.3 | 29 µM (inactive) | 7.6 µM (inactive) | 18.5 µM (inactive) | 9.29 µM (inactive) | 14.8 µM (inactive) | 24.2 µM (inactive) | 9.44 µM (inactive) | – | 43.1 µM (inactive) | 6.75 µM (inactive) | 18.2 µM (inactive) | 15 µM (inactive) | 24.2 µM (inactive) | 22.2 µM (inactive) | 27.7 µM (inactive) | 22.5 µM (inactive) | 18.5 µM (inactive) |
| Clc1ccc(C2Nc3ccccc3C3=NCCN32)cc1 (configuration not stated) | 30.7 µM (inactive) | 23.4 µM (inactive) | 34.3 | 15.9 µM (inactive) | 11.4 µM (inactive) | 15.6 µM (inactive) | 14.8 µM (inactive) | 15.6 µM (inactive) | 22.3 µM (inactive) | – | 21.1 µM (inactive) | 24.5 µM (inactive) | 17.5 µM (inactive) | 15.4 µM (inactive) | 27.9 µM (inactive) | 28.4 µM (inactive) | 18.5 µM (inactive) | 21 µM (inactive) | 19.5 µM (inactive) | 24.3 µM (inactive) |
| C[n+]1c(-c2ccc(/C=N\N3CCN(/N=C/c4ccc(-c5cn6ccccc6[n+]5C)cc4)CC3)cc2)cn2ccccc21 | 74.6 µM (inactive) | – | 88.3 | 20.9 µM (inactive) | > 100 µM (inactive) | 48.4 µM (inactive) | 19.1 µM (inactive) | 34.9 µM (inactive) | > 100 µM (inactive) | 83.9 µM (inactive) | 24.5 µM (inactive) | 76.6 µM (inactive) | 5.24 µM (inactive) | – | 32 µM (inactive) | 34.2 µM (inactive) | 21.9 µM (inactive) | 30.7 µM (inactive) | > 100 µM (inactive) | 35 µM (inactive) |

Reference: ChEMBL document CHEMBL1201862, “PubChem BioAssay data set” (2004)
